Results published in PubChem BioAssay (NCI).
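48-hour exposure; five concentrations; linearly interpolated endpoints. Abbreviation: GI50, concentration required for 50% inhibition of growth. TGI marks complete inhibition of growth.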 Where a SMILES comes first, the peptide text is derived from it. The star is where a group is joined. Boc = CC(C)(C)OC(=O)*; OBn = c1ccc(CO*)cc1

Tests used:
Assay in all cases: DTP human tumour cell line panel, 48 h
UO-31 renal = test system: UO-31 renal
OVCAR-4 ovarian = test system: OVCAR-4 ovarian
MOLT-4 leukemia = test system: MOLT-4 leukemia
U251 CNS = test system: U251 CNS
ACHN renal = test system: ACHN renal
CCRF-CEM leukemia = test system: CCRF-CEM leukemia
PC-3 prostate = test system: PC-3 prostate
SN12C renal = test system: SN12C renal
NCI-H226 lung = test system: NCI-H226 lung
OVCAR-3 ovarian = test system: OVCAR-3 ovarian
COLO 205 colon = test system: COLO 205 colon
MALME-3M melanoma = test system: MALME-3M melanoma
T-47D breast = test system: T-47D breast
LOX IMVI melanoma = test system: LOX IMVI melanoma
HS 578T breast = test system: HS 578T breast
SNB-75 CNS = test system: SNB-75 CNS
UACC-257 melanoma = test system: UACC-257 melanoma
M14 melanoma = test system: M14 melanoma
DU-145 prostate = test system: DU-145 prostate

Row | Structure (SMILES) | TGI (UO-31 renal) [µM] | TGI (OVCAR-4 ovarian) [µM] | TGI (MOLT-4 leukemia) [µM] | TGI (U251 CNS) [µM] | TGI (ACHN renal) [µM] | TGI (CCRF-CEM leukemia) [µM] | TGI (PC-3 prostate) [µM] | TGI (SN12C renal) [µM] | TGI (NCI-H226 lung) [µM] | TGI (OVCAR-3 ovarian) [µM] | TGI (COLO 205 colon) [µM] | TGI (MALME-3M melanoma) [µM] | TGI (T-47D breast) [µM] | TGI (LOX IMVI melanoma) [µM] | TGI (HS 578T breast) [µM] | TGI (SNB-75 CNS) [µM] | TGI (UACC-257 melanoma) [µM] | TGI (M14 melanoma) [µM] | TGI (DU-145 prostate) [µM] | GI50 (CCRF-CEM leukemia) [µM]
1 | COC(=O)Nc1nc2ccc(S(=O)(=O)NC(CC(C)C)C(=O)OC)cc2[nH]1 (stereo not drawn) | > 100 | > 100 | 29.2 | > 100 | > 100 | > 100 | > 100 | > 100 | > 100 | 2.7 | 59.3 | 41.2 | > 100 | > 100 | 3.47 | 8.16 | – | – | – | –
2 | O=C1c2ccccc2C(O)(C(=O)O)C1(O)CC=C(Cl)Cl (stereo not drawn) | > 125 | > 125 | > 125 | > 125 | – | > 125 | – | > 125 | > 125 | > 125 | > 125 | > 125 | – | > 125 | – | > 125 | > 125 | – | – | –
3 | O=C(O)c1ccc(P(=O)(O)c2ccc(C(=O)O)cc2Br)c(Br)c1 | > 100 | – | > 100 | – | – | – | > 100 | > 100 | > 100 | > 100 | > 100 | – | – | > 100 | > 100 | > 100 | > 100 | > 100 | > 100 | –
4 | COc1cc2c[n+](C)c3c4cc5c(cc4ccc3c2cc1OC)OCO5 | > 100 | > 52.4 | 13.5 | 2.13 | > 100 | 19.5 | > 100 | > 27.8 | 15.3 | 9.39 | 4.48 | 37.5 | – | 24.8 | > 100 | 0.767 | > 59.8 | > 88.1 | 9.19 | –
5 | COc1ccc(OC)c2sc(N3C(=O)/C(=C/c4ccc(Cl)cc4)N=C3c3ccccc3)nc12 | > 100 | – | 66.8 | > 100 | > 100 | > 100 | > 100 | > 100 | – | > 100 | > 100 | > 100 | 78.5 | > 100 | > 100 | > 100 | > 100 | > 100 | > 100 | –
6 | CCOC(=O)CCC(NC(=O)c1ccc(CNc2nc3ccccc3nc2C(=O)OCC)cc1)C(=O)OCC (stereo not drawn) | > 100 | – | > 100 | > 100 | > 100 | > 100 | > 100 | > 100 | > 100 | > 100 | > 100 | > 100 | – | > 100 | > 100 | > 100 | – | > 100 | > 100 | –
7 | Ic1ncnc2c1ncn2C1CCCO1 (stereo not drawn) | > 100 | > 100 | > 100 | > 100 | > 100 | > 100 | – | > 100 | > 100 | > 100 | > 100 | > 100 | – | > 100 | – | > 100 | > 100 | > 100 | – | –
8 | O=c1[nH]n(Cc2ccccc2Cl)c2ccc([N+](=O)[O-])cc12 | > 100 | > 100 | > 100 | > 100 | > 100 | > 100 | – | > 100 | > 100 | > 100 | > 100 | > 100 | – | > 100 | > 100 | > 100 | > 100 | > 100 | > 100 | –
9 | CC(C)C(NC(=O)C(Cc1ccccc1)NC(=O)OC(C)(C)C)C(=O)NCC(=O)OCc1ccccc1 (stereo not drawn) (Boc-Phe-Val-Gly-OBn; configuration not given here) | 51.6 | 58.8 | 39.7 | 32.2 | 31.4 | 43 | 29.5 | 34.5 | – | 27.9 | 35.5 | 37.5 | 36.7 | 30.2 | – | 36 | 41.9 | 36.5 | 28.7 | –
10 | Cc1csc2nc3c(cnn3C)c(=S)n12 | > 100 | > 100 | > 100 | > 100 | > 100 | > 100 | > 100 | > 100 | – | > 100 | > 10 | > 100 | > 10 | > 100 | > 100 | > 100 | > 100 | > 100 | – | –
11 | OC(CCN1CCCCC1)(c1ccccc1)c1ccccc1 | > 100 | – | > 100 | > 100 | > 100 | > 100 | > 100 | > 100 | – | > 100 | > 100 | > 100 | > 100 | > 100 | – | – | – | > 100 | > 100 | –
12 | CC(C)(C)O/C=C1/C(=O)OC2C[C@@H](O[Si](C)(C)C(C)(C)C)CC12 (stereo partly drawn) | > 100 | > 100 | – | > 100 | > 100 | 88.4 | > 100 | > 100 | > 100 | > 100 | > 100 | > 100 | > 100 | > 100 | – | 93.3 | > 100 | > 100 | > 100 | –
13 | COc1ccc2c(c1)/C(=C\c1c(C)nc3n1CCS3)C(=O)N2 | > 100 | – | > 100 | 60 | > 100 | > 100 | 55.2 | 73.8 | – | 76 | 41.9 | – | > 100 | > 100 | – | > 100 | > 100 | 93.7 | > 100 | –
14 | O=C1CC(CC(O)[C@@H]2CCCC[C@@H]2O)CC(=O)N1c1ccccc1 (stereo partly drawn) | > 100 | > 100 | > 100 | > 100 | > 100 | > 100 | > 100 | > 100 | > 100 | > 100 | – | > 100 | – | > 100 | > 100 | > 100 | > 100 | > 100 | > 100 | –
15 | C[C@]12C[C@H](c3ccccc3)Nc3ccccc3N1C(c1ccccc1)=NO2 | > 100 | > 100 | 78.8 | > 100 | > 100 | > 100 | > 100 | > 100 | > 100 | > 100 | > 100 | > 100 | – | – | > 100 | > 100 | > 100 | > 100 | > 100 | –
16 | COC1CC(C)C(OC)C2=CC(=O)C=C(NC(=O)/C(C)=C/C=C\C(C)C(OC(N)=O)/C(C)=C\C(C)C1OC)C2=O (stereo not drawn) | 10.8 | 2.48 | 1.04 | 11 | 3.97 | 1.05 | 23.6 | 5.48 | 22.4 | 1.48 | 3.19 | 12 | – | 3.66 | – | 16.1 | 1.8 | 12.2 | 15.9 | 0.0706
17 | O=c1c(C=Nc2ccccc2Cl)c(O)n(-c2ccccc2)c(=O)n1-c1ccccc1 | > 100 | > 100 | > 100 | > 100 | > 100 | > 100 | > 100 | > 100 | > 100 | > 100 | > 100 | > 100 | > 100 | > 100 | > 100 | – | > 100 | > 100 | – | –
18 | COc1ccc(Nc2nnc(CCCCCCCCc3nnc(Nc4ccc(OC)cc4)o3)o2)cc1 | > 100 | > 100 | > 100 | > 100 | > 100 | > 100 | > 100 | > 100 | > 100 | > 100 | > 100 | > 100 | – | > 100 | – | > 100 | > 100 | > 100 | > 100 | –
19 | Cc1ccc2nc(CN3CCCC(O)C3)cc(=O)n2c1 (stereo not drawn) | > 100 | > 100 | > 100 | > 100 | > 100 | > 100 | > 100 | > 100 | > 100 | > 100 | > 100 | > 100 | – | > 100 | > 100 | > 100 | > 100 | > 100 | > 100 | –
20 | COC(=O)C(C)NP(=O)(N1CC1)N1CC1 (stereo not drawn) | > 100 | > 100 | > 100 | > 100 | > 100 | > 100 | – | > 100 | – | – | > 100 | > 100 | – | > 100 | – | > 100 | > 100 | > 100 | – | –
21 | c1ccc2c(C3CCN(CCN4CCOCC4)C3)c[nH]c2c1 (stereo not drawn) | > 100 | > 100 | – | > 100 | > 100 | > 100 | > 100 | > 100 | – | > 100 | – | > 100 | > 100 | > 100 | > 100 | > 100 | > 100 | > 100 | > 100 | –
22 | COc1cc(C2SCC(=O)N2c2ccccc2Cl)cc(OC)c1OC (stereo not drawn) | > 100 | > 100 | – | > 100 | > 100 | > 100 | > 100 | > 100 | > 100 | > 100 | > 100 | – | – | > 100 | > 100 | – | > 100 | > 100 | > 100 | –
